Assay results published in ChEMBL document CHEMBL5321256, “Tolypocaibols: Antibacterial Lipopeptaibols from a Tolypocladium sp. Endophyte of the Marine Macroalga Spongomorpha arcta” (2023).
≈ marks a conversion by molar mass, not a printed value. Square brackets hold non-standard residues; d marks the D form. Peptide text beside a SMILES is read from it. * marks the point of attachment. Pro(4S-Me) = C[C@@H]1CN[C@H](C(=O)O)C1; Decanoyl = CCCCCCCCCC(=O)*; Valol = CC(C)[C@@H](CO)N*; Aib = CC(C)(N)C(=O)O

How the values were obtained:
Format in all cases: functional
[1] = system: Bacillus subtilis; assay: Antibacterial activity against Bacillus subtilis measured after 18 to 20 hrs by broth microdilution method; conditions: time 18-20 hrs
[2] = system: Klebsiella aerogenes; assay: Antibacterial activity against Klebsiella aerogenes measured after 18 to 20 hrs by broth microdilution method; conditions: time 18-20 hrs
[3] = system: Escherichia coli; assay: Antibacterial activity against Escherichia coli measured after 18 to 20 hrs by broth microdilution method; conditions: time 18-20 hrs
[4] = system: Providencia alcalifaciens; assay: Antibacterial activity against Providencia alcalifaciens measured after 18 to 20 hrs by broth microdilution method; conditions: time 18-20 hrs
[5] = system: Salmonella enterica; assay: Antibacterial activity against Salmonella enterica measured after 18 to 20 hrs by broth microdilution method; conditions: time 18-20 hrs
[6] = system: Shigella sonnei; assay: Antibacterial activity against Shigella sonnei measured after 18 to 20 hrs by broth microdilution method; conditions: time 18-20 hrs
[7] = system: Vibrio cholerae; assay: Antibacterial activity against Vibrio cholerae measured after 18 to 20 hrs by broth microdilution method; conditions: time 18-20 hrs
[8] = system: Mycolicibacterium smegmatis; assay: Antibacterial activity against Mycobacterium smegmatis ATCC 70084 by resazurin microplate assay
[9] = system: Enterococcus faecium; assay: Antibacterial activity against Enterococcus faecium measured after 18 to 20 hrs by broth microdilution method; conditions: time 18-20 hrs
[10] = system: Pseudomonas aeruginosa; assay: Antibacterial activity against Pseudomonas aeruginosa measured after 18 to 20 hrs by broth microdilution method; conditions: time 18-20 hrs
[11] = system: Brucella anthropi; assay: Antibacterial activity against Ochrobactrum anthropi measured after 18 to 20 hrs by broth microdilution method; conditions: time 18-20 hrs
[12] = system: Staphylococcus aureus; assay: Antibacterial activity against methicillin-resistant Staphylococcus aureus measured after 18 to 20 hrs by broth microdilution method; conditions: time 18-20 hrs
[13] = system: Staphylococcus epidermidis; assay: Antibacterial activity against Staphylococcus epidermidis measured after 18 to 20 hrs by broth microdilution method; conditions: time 18-20 hrs
[14] = system: Enterococcus faecalis; assay: Antibacterial activity against Enterococcus faecalis measured after 18 to 20 hrs by broth microdilution method; conditions: time 18-20 hrs
[15] = system: Yersinia pseudotuberculosis; assay: Antibacterial activity against Yersinia pseudotuberculosis measured after 18 to 20 hrs by broth microdilution method; conditions: time 18-20 hrs
[16] = system: Klebsiella pneumoniae; assay: Antibacterial activity against Klebsiella pneumoniae measured after 18 to 20 hrs by broth microdilution method; conditions: time 18-20 hrs
[17] = system: Listeria ivanovii; assay: Antibacterial activity against Listeria ivanovii ATCC BAA-139 measured after 18 to 20 hrs by broth microdilution method; conditions: time 18-20 hrs
[18] = system: Staphylococcus aureus; assay: Antibacterial activity against methicillin-susceptible Staphylococcus aureus measured after 18 to 20 hrs by broth microdilution method; conditions: time 18-20 hrs
[19] = system: Mycobacterium tuberculosis; assay: Antibacterial activity against Mycobacterium tuberculosis ATCC 25177 by resazurin microplate assay

O=C(O)c1cn(C2CC2)c2cc(N3CCNCC3)c(F)cc2c1=O [CIPROFLOXACIN]
MIC [1]: 0.38 µM (≈ 0.126 µg/mL) | MIC [2]: 2.83 µM (≈ 0.938 µg/mL) | MIC [3]: 0.17 µM (≈ 0.0563 µg/mL) | MIC [4]: 0.13 µM (≈ 0.0431 µg/mL) | MIC [5]: 0.05 µM (≈ 0.0166 µg/mL) | MIC [6]: 0.08 µM (≈ 0.0265 µg/mL) | MIC [7]: 0.02 µM (≈ 0.00663 µg/mL) | MIC [8]: 3.8 µM (≈ 1.26 µg/mL) | MIC [9]: 0.67 µM (≈ 0.222 µg/mL) | MIC [10]: 0.5 µM (≈ 0.166 µg/mL) | MIC [11]: 0.83 µM (≈ 0.275 µg/mL) | MIC [12]: 64 µM (≈ 21.2 µg/mL) | MIC [13]: 1.33 µM (≈ 0.441 µg/mL) | MIC [14]: 1 µM (≈ 0.331 µg/mL) | MIC [15]: 0.14 µM (≈ 0.0464 µg/mL) | MIC [16]: 2 µM (≈ 0.663 µg/mL) | MIC [17]: 8 µM (≈ 2.65 µg/mL)

CCCCCCCCCC(=O)NC(C)(C)C(=O)N1CCC[C@H]1C(=O)N[C@@H](Cc1ccccc1)C(=O)NC(C)(C)C(=O)N[C@@H](CCC(N)=O)C(=O)N[C@@H](CCC(N)=O)C(=O)NC(C)(C)C(=O)NC(C)(C)C(=O)N[C@@H](CCC(N)=O)C(=O)N[C@@H](CC(C)C)C(=O)N[C@H](CO)C(C)C (Decanoyl-[Aib]PF[Aib]QQ[Aib][Aib]QL-Valol)
MIC [1]: 8 µM (≈ 10.7 µg/mL) | MIC [2]: > 128 µM | MIC [3]: > 128 µM | MIC [4]: > 128 µM | MIC [5]: > 128 µM | MIC [6]: > 128 µM | MIC [7]: > 128 µM | MIC [8]: 80 µM (≈ 107 µg/mL) | MIC [9]: 32 µM (≈ 42.9 µg/mL) | MIC [18]: 8 µM (≈ 10.7 µg/mL) | MIC [10]: > 128 µM | MIC [11]: > 128 µM | MIC [12]: 16 µM (≈ 21.4 µg/mL) | MIC [13]: > 128 µM | MIC [14]: 32 µM (≈ 42.9 µg/mL) | MIC [15]: > 128 µM | MIC [19]: 20 µM (≈ 26.8 µg/mL) | MIC [16]: > 128 µM | MIC [17]: 8 µM (≈ 10.7 µg/mL)

C=C[C@@H]1C[C@H](C)C[C@H](C)[C@H]1c1c(O)ccn(O[C@@H]2C(C(=O)OC)=C[C@@H](O)[C@@H](O)[C@H]2O)c1=O
MIC [1]: 128 µM (≈ 57.5 µg/mL) | MIC [2]: > 128 µM | MIC [3]: 128 µM (≈ 57.5 µg/mL) | MIC [4]: 128 µM (≈ 57.5 µg/mL) | MIC [5]: 128 µM (≈ 57.5 µg/mL) | MIC [6]: 128 µM (≈ 57.5 µg/mL) | MIC [7]: 128 µM (≈ 57.5 µg/mL) | MIC [8]: > 250 µM | MIC [9]: 128 µM (≈ 57.5 µg/mL) | MIC [18]: 128 µM (≈ 57.5 µg/mL) | MIC [10]: > 128 µM | MIC [11]: 128 µM (≈ 57.5 µg/mL) | MIC [12]: 128 µM (≈ 57.5 µg/mL) | MIC [13]: 128 µM (≈ 57.5 µg/mL) | MIC [14]: 128 µM (≈ 57.5 µg/mL) | MIC [15]: 128 µM (≈ 57.5 µg/mL) | MIC [19]: 250 µM (≈ 112 µg/mL) | MIC [16]: > 128 µM | MIC [17]: 16 µM (≈ 7.19 µg/mL)

CCCCCCCCCC(=O)NC(C)(C)C(=O)N1C[C@@H](C)C[C@H]1C(=O)N[C@@H](Cc1ccccc1)C(=O)NC(C)(C)C(=O)N[C@@H](CCC(N)=O)C(=O)N[C@@H](CCC(N)=O)C(=O)NC(C)(C)C(=O)NC(C)(C)C(=O)N[C@@H](CCC(N)=O)C(=O)N[C@@H](CC(C)C)C(=O)N[C@H](CO)C(C)C (Decanoyl-[Aib][Pro(4S-Me)]F[Aib]QQ[Aib][Aib]QL-Valol)
MIC [1]: 4 µM (≈ 5.41 µg/mL) | MIC [2]: > 128 µM | MIC [3]: > 128 µM | MIC [4]: > 128 µM | MIC [5]: > 128 µM | MIC [6]: > 128 µM | MIC [7]: > 128 µM | MIC [8]: 80 µM (≈ 108 µg/mL) | MIC [9]: 16 µM (≈ 21.7 µg/mL) | MIC [18]: 4 µM (≈ 5.41 µg/mL) | MIC [10]: > 128 µM | MIC [11]: > 128 µM | MIC [12]: 16 µM (≈ 21.7 µg/mL) | MIC [13]: > 128 µM | MIC [14]: 16 µM (≈ 21.7 µg/mL) | MIC [15]: > 128 µM | MIC [19]: 40 µM (≈ 54.1 µg/mL) | MIC [16]: > 128 µM | MIC [17]: 8 µM (≈ 10.8 µg/mL)

CO[C@H]1/C=C/O[C@@]2(C)Oc3c(C)c(O)c4c(O)c(c(/C=N/N5CCN(C)CC5)c(O)c4c3C2=O)NC(=O)/C(C)=C\C=C\[C@H](C)[C@H](O)[C@@H](C)[C@@H](O)[C@@H](C)[C@H](OC(C)=O)[C@@H]1C [RIFAMPIN]
MIC [1]: 0.19 µM (≈ 0.156 µg/mL) | MIC [2]: 8 µM (≈ 6.58 µg/mL) | MIC [3]: 4 µM (≈ 3.29 µg/mL) | MIC [4]: 8 µM (≈ 6.58 µg/mL) | MIC [5]: 2 µM (≈ 1.65 µg/mL) | MIC [6]: 1.67 µM (≈ 1.37 µg/mL) | MIC [7]: > 128 µM | MIC [9]: 21.3 µM (≈ 17.5 µg/mL) | MIC [18]: 0.01 µM (≈ 0.00823 µg/mL) | MIC [10]: 53.3 µM (≈ 43.9 µg/mL) | MIC [11]: 4 µM (≈ 3.29 µg/mL) | MIC [12]: 2 µM (≈ 1.65 µg/mL) | MIC [13]: 0.02 µM (≈ 0.0165 µg/mL) | MIC [14]: 1 µM (≈ 0.823 µg/mL) | MIC [15]: 10.7 µM (≈ 8.81 µg/mL) | MIC [19]: 0.062 µM (≈ 0.051 µg/mL) | MIC [16]: 16 µM (≈ 13.2 µg/mL) | MIC [17]: 0.02 µM (≈ 0.0165 µg/mL)
